Measurements reported in US20250034161A1, “SPIROCYCLIC COMPOUND AS KRAS-G12C INHIBITOR” (Shanghai Euregen Biopharma Co., Ltd., priority 2020, published 2025).
pIC50: −log10 of the molar value.

How the values were obtained:
hERG potassium channel = hERG potassium channel (Homo sapiens, UniProt Q12809); test: hERG experiment, manual membrane clamp on HEK293 cells
Excerpt: hERG Experiment • 1. Test purpose: to test the inhibition of hERG current on HEK293 cells stably transfected with hERG potassium channel by manual membrane clamp; • 2. […] Manual membrane clamp system amplifier was purchased from Molecular Devices (Model No. MultiClamp700B); Manual membrane clamp system digital-to-analog converter was purchased from Molecular Devices (Model No. Axon Digidata1550B); Rapid perfusion system was purchased from ALA Scientific Ins. […] Experimental methods:
The cells were resuspended with culture medium and stored in a centrifuge tube, the supernatant was discarded after centrifugation, then the cells were resuspended with extracellular liquid for later use, and stored at 2-8° C.
The whole-cell membrane clamp technique was applied to record hERG currents. The cell suspension was added into small Petri dishes and placed on an inverted microscope stage. After cells were adhered, they were perfused with extracellular fluid at a recommended flow rate of 1-2 mL/min. The glass microelectrode was drawn in two steps by a micropipette puller, and its resistance value in water was 2-5 MΩ after filling with electrode internal fluid.
After the whole-cell recording mode was established, the clamp potential was maintained at −80 mV. […]
Stimulus release and signal acquisition were performed on PatchMaster software. […] Data was expressed as mean and standard deviation. […]

[1] = Brain tissue distribution test; type: in vivo; settings: SD rats, PO 20 mg/kg
Procedure: 5 g of methyl cellulose was weighed and dissolved in 1000 mL of purified water to obtain 0.5% methyl cellulose. A required amount of the test compound was weighed and dissolved in 0.5% methylcellulose solution to obtain a suspension of 2 mg/mL.
Administration: SD rats were orally administered (PO) after overnight fasting. Feeding 4 hours after administration.
Sample Collection: 0.5 mL of blood was collected at each time point via the jugular vein. Samples were placed into tubes containing ethylenediamine tetraacetic acid dipotassium salt (K2EDTA) and kept on ice before centrifugation. Within 1 hour after blood collection, blood samples were centrifuged at 2-8° C. and 6800 g for 6 minutes and stored at −80° C. After the rats were euthanized by carbon dioxide inhalation, the brains of the rats were collected, quickly frozen on dry ice, and stored at −80° C. before bioanalysis. The time points for blood collection were 0.5 and 2 hours after oral administration.

[2] = Plasma protein binding assay (equilibrium dialysis), mouse plasma; type: in vitro ADME; settings: pH 7.4, Mice plasma, equilibrium dialysis 5 hours, read-out: Plasma protein binding rate (%) (converted)
Procedure: • 1. Test purpose: to evaluate the protein binding rate of the test compound in human, dog, monkey, rat and mouse plasma by equilibrium dialysis; • 2. […] Experimental methods: • 0.1 mol/L sodium phosphate and 0.15 mol/L sodium chloride buffer with pH 7.4±0.1 was preheated;
Preparation of plasma containing test substance: the test compound was dissolved in DMSO to prepare a 10 mmol/l stock solution. 5 μL of stock solution was taken and diluted with 95 μL of acetonitrile to obtain solution A (0.5 mmol/L). 8 μL of solution A was taken and diluted with 192 μL of 0.1 mol/L sodium phosphate buffer to obtain solution B (0.02 mmol/L). 570 μL of plasma was added into a 96-well plate followed by the addition of 30 μL of solution B. The final concentration was 1 μmol/L with 0.01% DMSO.
The plate was shook at 600 rpm for 10 minutes, covered and stored in a freezer (−20° C.).
T5 sample preparation (in triplicate): the dialysis device was added with 100 μL of buffer on its receiver side and 100 μL of plasma containing the test compound on its doner side. And the dialysis device was then shook at 37° C. and 120 rpm for 5 hours. At the end of culture, 25 μL of plasma containing the test substance was taken from the plasma side and then added to a 96-well plate, followed by the addition of 25 μL of buffer and 200 μL of acetonitrile solution containing internal standard. […]

CYP 2C19 = CYP 2C19 (Homo sapiens, UniProt P33261); test: CYP inhibition test, human liver microsomes, CYP2C19
CYP 2C19, sequence (P33261 whole entry): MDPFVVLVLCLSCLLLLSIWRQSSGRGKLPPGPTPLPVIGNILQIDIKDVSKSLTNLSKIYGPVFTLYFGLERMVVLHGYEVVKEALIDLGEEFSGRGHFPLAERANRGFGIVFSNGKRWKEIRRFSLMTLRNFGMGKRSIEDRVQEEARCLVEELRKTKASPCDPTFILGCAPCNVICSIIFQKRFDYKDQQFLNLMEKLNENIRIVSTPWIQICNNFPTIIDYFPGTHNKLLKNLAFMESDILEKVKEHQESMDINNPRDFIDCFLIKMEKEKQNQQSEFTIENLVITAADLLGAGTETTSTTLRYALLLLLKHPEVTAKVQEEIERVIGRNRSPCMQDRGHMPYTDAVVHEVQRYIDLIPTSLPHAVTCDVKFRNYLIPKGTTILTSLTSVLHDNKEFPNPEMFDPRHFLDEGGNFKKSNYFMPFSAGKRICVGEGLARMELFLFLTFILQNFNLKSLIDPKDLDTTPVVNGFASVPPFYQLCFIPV
Procedure: • 1. Test purpose: to evaluate the inhibitory ability of some of the example compounds of the present invention against CYP1A2, 2B6, 2C8, 2C9, 2C19, 2D6 and 3A4 via human liver microsomes. • 2. […] Test method:
• 1. K/Mg buffer: the components were 0.1 mol/L potassium phosphate and 5 mmol/L magnesium chloride with pH 7.4±0.1, preheated. • 2. Solution of the test compound: the test compound was dissolved in dimethyl sulfoxide to prepare a stock solution of 10 mmol/L. 8 μL of 10 mmol/L stock solution was transferred to a 96-well plate containing 12 μL of acetonitrile as the highest concentration point, at 3-fold dilution, for 8 concentrations. • 3. NADPH solution: 66.7 mg of NADPH was dissolved in 10 mL of 0.1 mol/L K/Mg buffer to obtain 8 mmol/L NADPH solution with pH 7.4. • 4. Human liver microsomal stock solution: human liver microsomes were dissolved in 0.1 mol/L K/Mg buffer to obtain 20 mg/mL stock solution. • 5. Human liver microsomal working solution: 10 μL of 20 mg/mL human liver microsomal stock solution was taken and added into 990 μL of 0.1 mol/L K/Mg buffer to prepare 0.2 mg/mL human liver microsomal solution. • 6. […]

hERG potassium channel, sequence (Q12809 whole entry): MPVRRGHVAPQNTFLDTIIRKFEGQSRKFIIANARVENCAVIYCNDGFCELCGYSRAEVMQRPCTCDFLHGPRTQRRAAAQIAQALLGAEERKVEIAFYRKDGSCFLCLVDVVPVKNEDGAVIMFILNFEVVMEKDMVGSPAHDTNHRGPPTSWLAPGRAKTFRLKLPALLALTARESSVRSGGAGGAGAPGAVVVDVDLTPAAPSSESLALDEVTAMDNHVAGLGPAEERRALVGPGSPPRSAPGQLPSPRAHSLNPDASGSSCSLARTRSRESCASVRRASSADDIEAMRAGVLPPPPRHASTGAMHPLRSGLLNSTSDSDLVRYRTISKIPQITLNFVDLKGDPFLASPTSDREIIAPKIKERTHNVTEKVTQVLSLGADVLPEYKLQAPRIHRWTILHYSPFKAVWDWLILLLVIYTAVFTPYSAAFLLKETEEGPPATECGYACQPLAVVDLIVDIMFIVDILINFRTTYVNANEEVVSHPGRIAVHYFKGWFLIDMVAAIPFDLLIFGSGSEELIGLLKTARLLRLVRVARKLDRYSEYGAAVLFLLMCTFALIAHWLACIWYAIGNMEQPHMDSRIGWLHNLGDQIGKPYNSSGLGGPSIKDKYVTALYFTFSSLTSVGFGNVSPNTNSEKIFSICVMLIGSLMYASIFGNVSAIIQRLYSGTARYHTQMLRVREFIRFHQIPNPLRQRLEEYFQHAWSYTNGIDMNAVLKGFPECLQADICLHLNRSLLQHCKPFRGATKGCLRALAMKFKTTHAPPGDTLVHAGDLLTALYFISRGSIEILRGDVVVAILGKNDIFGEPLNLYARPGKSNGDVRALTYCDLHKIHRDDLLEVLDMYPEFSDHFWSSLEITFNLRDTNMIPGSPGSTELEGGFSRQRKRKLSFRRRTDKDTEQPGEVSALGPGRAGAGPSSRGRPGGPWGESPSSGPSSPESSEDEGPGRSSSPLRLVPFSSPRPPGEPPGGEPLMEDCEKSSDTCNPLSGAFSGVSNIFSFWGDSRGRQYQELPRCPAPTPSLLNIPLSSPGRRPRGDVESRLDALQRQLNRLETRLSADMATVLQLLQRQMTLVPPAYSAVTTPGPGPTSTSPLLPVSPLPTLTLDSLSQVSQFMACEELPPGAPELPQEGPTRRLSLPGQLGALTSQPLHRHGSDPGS

Row | SMILES | pIC50 (hERG potassium channel) | Brain concentration 0.5 hours after administration (ng/g) ([1]; 0.5 hours) | Brain concentration 2 hours after administration (ng/g) ([1]; 2 hours) | fraction unbound at 5 h, 1 μmol/L [2] | pIC50 (CYP 2C19) | concentration at 0.5 h ([1]; Sprague-Dawley (SD), rat, brain, 0.5 hours, read-out: Brain concentration 0.5 hours after administration) [ng/g] | concentration at 2 h ([1]; Sprague-Dawley (SD), rat, brain, 2 hours, read-out: Brain concentration 2 hours after administration) [ng/g]
1 | C=CC(=O)N1CCN(c2nc(=O)n(-c3c(C)ccnc3C(C)C)c3nc(-c4c(O)cccc4F)c(F)cc23)[C@@H](C)C1 [AMG510] | < 4.52 | Below detection limit | Below detection limit | 0.091 | < 5.00 |  | 
2 | C=C(F)C(=O)N1CCN(c2nc(OC[C@@H]3CCCN3C)nc3c2CCN(c2cccc4cccc(Cl)c24)C3)C[C@@H]1CC#N [MRTX849] | 6.00 |  |  | 0.004 | < 5.00 | 8 | 69.8
